# What was measured:
# [1] = test system: Staphylococcus aureus; test: Antibacterial activity against methicillin-susceptible Staphylococcus aureus ATCC 29213 by CLSI M100-S17 protocol based broth dilution method; type: functional
# [2] = test system: Staphylococcus aureus; test: Antibacterial activity against methicillin-resistant Staphylococcus aureus isolate SA1114 by CLSI M100-S17 protocol based broth dilution method; type: functional
SMILES,MIC [1],MIC [2]
CC[C@@H](C)[C@@H](NC(=O)[C@@H](CCC(N)=O)NC(=O)[C@H](CO)NC(=O)[C@@H](NC(=O)[C@@H](Cc1ccccc1)NC)[C@@H](C)CC)C(=O)N[C@H](C(=O)N[C@@H](CO)C(=O)N[C@H]1C(=O)N[C@@H](C)C(=O)N[C@@H](Cc2ccccc2)C(=O)N[C@@H]([C@@H](C)CC)C(=O)O[C@H]1C)[C@@H](C)CC,1 mg/L,4 mg/L
CC[C@@H](C)[C@@H](NC(=O)[C@@H](CCC(N)=O)NC(=O)[C@H](CO)NC(=O)[C@@H](NC(=O)[C@@H](Cc1ccccc1)NC)[C@@H](C)CC)C(=O)N[C@H](C(=O)N[C@@H](CO)C(=O)N[C@H]1C(=O)N[C@@H](C)C(=O)N[C@@H](C)C(=O)N[C@@H]([C@@H](C)CC)C(=O)O[C@H]1C)[C@@H](C)CC,2 mg/L,8 mg/L
CC[C@@H](C)[C@@H](NC(=O)[C@@H](CCC(N)=O)NC(=O)[C@H](CO)NC(=O)[C@@H](NC(=O)[C@@H](Cc1ccccc1)NC)[C@@H](C)CC)C(=O)N[C@H](C(=O)N[C@@H](CO)C(=O)N[C@H]1C(=O)N[C@@H](C)C(=O)N[C@@H](C(C)C)C(=O)N[C@@H]([C@@H](C)CC)C(=O)O[C@H]1C)[C@@H](C)CC,0.5 mg/L,2 mg/L
CC[C@@H](C)[C@@H](NC(=O)[C@@H](CCC(N)=O)NC(=O)[C@H](CO)NC(=O)[C@@H](NC(=O)[C@@H](Cc1ccccc1)NC)[C@@H](C)CC)C(=O)N[C@H](C(=O)N[C@@H](CO)C(=O)N[C@H]1C(=O)N[C@@H](C)C(=O)N[C@@H](CC(C)C)C(=O)N[C@@H]([C@@H](C)CC)C(=O)O[C@H]1C)[C@@H](C)CC,0.5 mg/L,2 mg/L
CC[C@@H](C)[C@@H](NC(=O)[C@@H](CCC(N)=O)NC(=O)[C@H](CO)NC(=O)[C@@H](NC(=O)[C@@H](Cc1ccccc1)NC)[C@@H](C)CC)C(=O)N[C@H](C(=O)N[C@@H](CO)C(=O)N[C@H]1C(=O)N[C@@H](C)C(=O)N[C@@H](CC(N)=O)C(=O)N[C@@H]([C@@H](C)CC)C(=O)O[C@H]1C)[C@@H](C)CC,8 mg/L,16 mg/L
CC[C@@H](C)[C@@H](NC(=O)[C@@H](CCC(N)=O)NC(=O)[C@H](CO)NC(=O)[C@@H](NC(=O)[C@@H](Cc1ccccc1)NC)[C@@H](C)CC)C(=O)N[C@H](C(=O)N[C@@H](CO)C(=O)N[C@H]1C(=O)N[C@@H](C)C(=O)N[C@@H](Cc2ccc(O)c([N+](=O)[O-])c2)C(=O)N[C@@H]([C@@H](C)CC)C(=O)O[C@H]1C)[C@@H](C)CC,1 mg/L,4 mg/L
CC[C@@H](C)[C@@H](NC(=O)[C@@H](CCC(N)=O)NC(=O)[C@H](CO)NC(=O)[C@@H](NC(=O)[C@@H](Cc1ccccc1)NC)[C@@H](C)CC)C(=O)N[C@H](C(=O)N[C@@H](CO)C(=O)N[C@H]1C(=O)N[C@@H](C)C(=O)N[C@@H]([C@@H](C)CC)C(=O)N[C@@H]([C@@H](C)CC)C(=O)O[C@H]1C)[C@@H](C)CC,0.5 mg/L,1 mg/L
CC[C@@H](C)[C@@H](NC(=O)[C@@H](CCC(N)=O)NC(=O)[C@H](CO)NC(=O)[C@@H](NC(=O)[C@@H](Cc1ccccc1)NC)[C@@H](C)CC)C(=O)N[C@H](C(=O)N[C@@H](CO)C(=O)N[C@H]1C(=O)N[C@@H](C)C(=O)NCC(=O)N[C@@H]([C@@H](C)CC)C(=O)O[C@H]1C)[C@@H](C)CC,2 mg/L,8 to 16 mg/L
CC[C@@H](C)[C@@H](NC(=O)[C@@H](CCC(N)=O)NC(=O)[C@H](CO)NC(=O)[C@@H](NC(=O)[C@@H](Cc1ccccc1)NC)[C@@H](C)CC)C(=O)N[C@H](C(=O)N[C@@H](CO)C(=O)N[C@H]1C(=O)N[C@@H](C)C(=O)N[C@@H](Cc2ccc(O)cc2)C(=O)N[C@@H]([C@@H](C)CC)C(=O)O[C@H]1C)[C@@H](C)CC,2 mg/L,8 mg/L
CC[C@@H](C)[C@@H](NC(=O)[C@@H](CCC(N)=O)NC(=O)[C@H](CO)NC(=O)[C@@H](NC(=O)[C@@H](Cc1ccccc1)NC)[C@@H](C)CC)C(=O)N[C@H](C(=O)N[C@@H](CO)C(=O)N[C@H]1C(=O)N[C@@H](C)C(=O)N[C@@H](Cc2ccc(F)cc2)C(=O)N[C@@H]([C@@H](C)CC)C(=O)O[C@H]1C)[C@@H](C)CC,0.5 mg/L,4 mg/L
CC[C@@H](C)[C@@H](NC(=O)[C@@H](CCC(N)=O)NC(=O)[C@H](CO)NC(=O)[C@@H](NC(=O)[C@@H](Cc1ccccc1)NC)[C@@H](C)CC)C(=O)N[C@H](C(=O)N[C@@H](CO)C(=O)N[C@H]1C(=O)N[C@@H](C)C(=O)N[C@@H](CCSC)C(=O)N[C@@H]([C@@H](C)CC)C(=O)O[C@H]1C)[C@@H](C)CC,0.25 mg/L,1 mg/L
CC[C@@H](C)[C@@H](NC(=O)[C@@H](CCC(N)=O)NC(=O)[C@H](CO)NC(=O)[C@@H](NC(=O)[C@@H](Cc1ccccc1)NC)[C@@H](C)CC)C(=O)N[C@H](C(=O)N[C@@H](CO)C(=O)N[C@H]1C(=O)N[C@@H](C)C(=O)N[C@@H]([C@@H](C)O)C(=O)N[C@@H]([C@@H](C)CC)C(=O)O[C@H]1C)[C@@H](C)CC,8 mg/L,16 mg/L
CC[C@@H](C)[C@@H](NC(=O)[C@@H](CCC(N)=O)NC(=O)[C@H](CO)NC(=O)[C@@H](NC(=O)[C@@H](Cc1ccccc1)NC)[C@@H](C)CC)C(=O)N[C@H](C(=O)N[C@@H](CO)C(=O)N[C@H]1C(=O)N[C@@H](C)C(=O)N[C@@H](Cc2ccc([N+](=O)[O-])cc2)C(=O)N[C@@H]([C@@H](C)CC)C(=O)O[C@H]1C)[C@@H](C)CC,0.5 mg/L,4 mg/L
CC[C@@H]1NC(=O)[C@H](C)NC(=O)[C@H](NC(=O)[C@H](CO)NC(=O)[C@@H](NC(=O)[C@H](NC(=O)[C@@H](CCC(N)=O)NC(=O)[C@H](CO)NC(=O)[C@@H](NC(=O)[C@@H](Cc2ccccc2)NC)[C@@H](C)CC)[C@H](C)CC)[C@@H](C)CC)[C@H](C)OC(=O)[C@H]([C@@H](C)CC)NC1=O,1 mg/L,4 mg/L
CC[C@@H](C)[C@@H](NC(=O)[C@@H](CCC(N)=O)NC(=O)[C@H](CO)NC(=O)[C@@H](NC(=O)[C@@H](Cc1ccccc1)NC)[C@@H](C)CC)C(=O)N[C@H](C(=O)N[C@@H](CO)C(=O)N[C@H]1C(=O)N[C@@H](C)C(=O)N[C@@H](Cc2ccc(Cl)cc2)C(=O)N[C@@H]([C@@H](C)CC)C(=O)O[C@H]1C)[C@@H](C)CC,1 mg/L,4 mg/L
CC[C@@H](C)[C@@H](NC(=O)[C@@H](CCC(N)=O)NC(=O)[C@H](CO)NC(=O)[C@@H](NC(=O)[C@@H](Cc1ccccc1)NC)[C@@H](C)CC)C(=O)N[C@H](C(=O)N[C@@H](CO)C(=O)N[C@H]1C(=O)N[C@@H](C)C(=O)N[C@@H](CCC(N)=O)C(=O)N[C@@H]([C@@H](C)CC)C(=O)O[C@H]1C)[C@@H](C)CC,16 mg/L,16 mg/L
CC[C@@H](C)[C@@H](NC(=O)[C@@H](CCC(N)=O)NC(=O)[C@H](CO)NC(=O)[C@@H](NC(=O)[C@@H](Cc1ccccc1)NC)[C@@H](C)CC)C(=O)N[C@H](C(=O)N[C@@H](CO)C(=O)N[C@H]1C(=O)N[C@@H](C)C(=O)N[C@@H](CC(=O)O)C(=O)N[C@@H]([C@@H](C)CC)C(=O)O[C@H]1C)[C@@H](C)CC,≥ 32 mg/L,≥ 32 mg/L
CC[C@@H](C)[C@@H](NC(=O)[C@@H](CCC(N)=O)NC(=O)[C@H](CO)NC(=O)[C@@H](NC(=O)[C@@H](Cc1ccccc1)NC)[C@@H](C)CC)C(=O)N[C@H](C(=O)N[C@@H](CO)C(=O)N[C@H]1C(=O)N[C@@H](C)C(=O)N2CCC[C@H]2C(=O)N[C@@H]([C@@H](C)CC)C(=O)O[C@H]1C)[C@@H](C)CC,≥ 32 mg/L,≥ 32 mg/L
CC[C@@H](C)[C@@H](NC(=O)[C@@H](CCC(N)=O)NC(=O)[C@H](CO)NC(=O)[C@@H](NC(=O)[C@@H](Cc1ccccc1)NC)[C@@H](C)CC)C(=O)N[C@H](C(=O)N[C@@H](CO)C(=O)N[C@H]1C(=O)N[C@@H](C)C(=O)N[C@@H](Cc2ccc(C)cc2)C(=O)N[C@@H]([C@@H](C)CC)C(=O)O[C@H]1C)[C@@H](C)CC,1 mg/L,≥ 32 mg/L
CC[C@@H](C)[C@@H](NC(=O)[C@@H](CCC(N)=O)NC(=O)[C@H](CO)NC(=O)[C@@H](NC(=O)[C@@H](Cc1ccccc1)NC)[C@@H](C)CC)C(=O)N[C@H](C(=O)N[C@@H](CO)C(=O)N[C@H]1C(=O)N[C@@H](C)C(=O)N[C@@H](CCC(=O)O)C(=O)N[C@@H]([C@@H](C)CC)C(=O)O[C@H]1C)[C@@H](C)CC,≥ 32 mg/L,≥ 32 mg/L
CC[C@@H](C)[C@@H](NC(=O)[C@@H](CCC(N)=O)NC(=O)[C@H](CO)NC(=O)[C@@H](NC(=O)[C@@H](Cc1ccccc1)NC)[C@@H](C)CC)C(=O)N[C@H](C(=O)N[C@@H](CO)C(=O)N[C@H]1C(=O)N[C@@H](C)C(=O)N[C@@H](Cc2ccc(OC)cc2)C(=O)N[C@@H]([C@@H](C)CC)C(=O)O[C@H]1C)[C@@H](C)CC,1 mg/L,≥ 32 mg/L
CC[C@@H](C)[C@@H](NC(=O)[C@@H](CCC(N)=O)NC(=O)[C@H](CO)NC(=O)[C@@H](NC(=O)[C@@H](Cc1ccccc1)NC)[C@@H](C)CC)C(=O)N[C@H](C(=O)N[C@@H](CO)C(=O)N[C@H]1C(=O)N[C@@H](C)C(=O)N[C@@H](CSC(C)(C)C)C(=O)N[C@@H]([C@@H](C)CC)C(=O)O[C@H]1C)[C@@H](C)CC,2 mg/L,4 mg/L
CC[C@@H](C)[C@@H](NC(=O)[C@@H](CCC(N)=O)NC(=O)[C@H](CO)NC(=O)[C@@H](NC(=O)[C@@H](Cc1ccccc1)NC)[C@@H](C)CC)C(=O)N[C@H](C(=O)N[C@@H](CO)C(=O)N[C@H]1C(=O)N[C@@H](C)C(=O)N[C@@H](Cc2c[nH]c3ccccc23)C(=O)N[C@@H]([C@@H](C)CC)C(=O)O[C@H]1C)[C@@H](C)CC,8 mg/L,8 to 16 mg/L
CC[C@@H](C)[C@@H](NC(=O)[C@@H](CCC(N)=O)NC(=O)[C@H](CO)NC(=O)[C@@H](NC(=O)[C@@H](Cc1ccccc1)NC)[C@@H](C)CC)C(=O)N[C@H](C(=O)N[C@@H](CO)C(=O)N[C@H]1C(=O)N[C@@H](C)C(=O)N[C@@H](CO)C(=O)N[C@@H]([C@@H](C)CC)C(=O)O[C@H]1C)[C@@H](C)CC,16 mg/L,16 mg/L
CC[C@@H](C)[C@@H](NC(=O)[C@@H](CCC(N)=O)NC(=O)[C@H](CO)NC(=O)[C@@H](NC(=O)[C@@H](Cc1ccccc1)NC)[C@@H](C)CC)C(=O)N[C@H](C(=O)N[C@@H](CO)C(=O)N[C@H]1C(=O)N[C@@H](C)C(=O)N[C@@H](Cc2ccc(Br)cc2)C(=O)N[C@@H]([C@@H](C)CC)C(=O)O[C@H]1C)[C@@H](C)CC,2 mg/L,≥ 32 mg/L

# Reference: ChEMBL document CHEMBL4184242, “Synthesis and antibacterial studies of teixobactin analogues with non-isostere substitution of enduracididine” (2018)
